# Measurements reported in patent publication US20090326633A1, “CONTROLLED RELEASE ENDOPROSTHETIC DEVICE” (BOEHRINGER INGELHEIM PHARMA GMBH & CO. KG, priority 2001, published 2009).
# System: muscle cells
# Assay: Cell proliferation ELISA, BrdU incorporation into DNA (inhibition of DNA synthesis)
# Format: cell-based
# Conditions: stents loaded with dipyramidole
# Source text: Incorporation of BrdU instead of thymidine into the DNA, measurement with anti-BrdU-POD antibody (Cell proliferation ELISA, BrdU; obtained from Roche Diagnostics, Mannheim, Germany)
# The following results have been obtained using this test with the stents loaded with dipyramidole according to the present invention: […]
smiles,measurement,setting,value
"OCCN(CCO)c1nc(N2CCCCC2)c2nc(N(CCO)CCO)nc(N3CCCCC3)c2n1 [dipyridamole, 2,6-bis(diethanolamino)-4,8-dipiperidino-pyrimido[5,4-d]pyrimidine]",IC50,muscle cells stimulated with PDGF-BB,100 to 300 nM
same,IC50,muscle cells without stimulation,1000 to 3000 nM
same,IC50,with freshly prepared medium,4000 to 10000 nM
